Results: paper PMC4999056 (European Journal of Medicinal Chemistry, 2016)
Read-outs that look alike come from different tables or passages of the source.

Columns and labels:
in vitro [1] = conditions: chlorocebus aethiops, Yellow fever CC50
DENV (serotype 2) = test: microbe, parasite or virus in culture; type: cell-based, Dengue virus serotype 2; conditions: for EC50: read-out: Dengue EC50
in vitro [2] = test: in vitro
YFV = test: microbe, parasite or virus in culture; type: cell-based, yellow fever virus; conditions: for EC50: Yellow fever virus, Vero B, read-out: Yellow fever EC50

Q: With Cc1ccc(NC(=O)c2ccccc2C(=O)Nc2ccc(F)cc2)c(-c2ccsc2)c1 [7h, N^1-(4-fluorophenyl)-N^2-(4-methyl-2-(thiophen-3-yl)phenyl)phthalamide] as the compound, how does the CC50 at 168 h (in vitro [1]) read?
A: 67 µM

Q: What about the “Dengue SI” value (DENV (serotype 2)) of the same compound?
A: 16

Q: What about the EC50 (DENV (serotype 2); Dengue virus, Vero B) of the same compound?
A: 3 µM

Q: What about the CC50 at 168 h (in vitro [2]; chlorocebus aethiops) of the same compound?
A: 47 µM

Q: What about the “Yellow fever SI” value (YFV) of the same compound?
A: 10

Q: What about the EC50 (YFV) of the same compound?
A: 6.5 µM

Q: Which results are given for Cc1ccc(NC(=O)c2ccccc2C(=O)Nc2ccc(C)cc2-c2ccsc2)cc1 [7g, N^1-(4-methyl-2-(thiophen-3-yl)phenyl)-N^2-(p-tolyl)phthalamide]?
A: CC50 (in vitro [1]): > 117 µM; EC50 (DENV (serotype 2); Dengue virus, Vero B): 0.5 µM; EC50 (DENV (serotype 2)): 0.7 µM; CC50 at 168 h (in vitro [2]; chlorocebus aethiops): 12.9 µM; CC50 (in vitro [2]; green monkey): > 116 µM; Yellow fever SI (YFV): >60; EC50 (YFV): 1.9 µM

Q: With Cc1cc(-c2ccccc2NC(=O)c2ccccc2C(=O)Nc2ccc(F)cc2)[nH]n1 [7m, N^1-(4-fluorophenyl)-N^2-(2-(3-methyl-1H-pyrazol-5-yl)phenyl)phthalamide] as the compound, how does the CC50 (in vitro [1]) read?
A: > 120 µM

Q: What about the “Dengue SI” value (DENV (serotype 2)) of the same compound?
A: 1

Q: And the EC50 (DENV (serotype 2); Dengue virus, Vero B)?
A: > 120 µM

Q: What about the CC50 (in vitro [2]; chlorocebus aethiops) of the same compound?
A: > 120 µM

Q: And the “Yellow fever SI” value (YFV)?
A: >10

Q: What about the EC50 (YFV) of the same compound?
A: 12 µM

Q: For Cc1ccc(NC(=O)c2nccnc2C(=O)Nc2ccc(F)cc2)c(-c2ccsc2)c1 [6g, N^2-(4-fluorophenyl)-N^3-(4-methyl-2-(thiophen-3-yl)phenyl)pyrazine-2,3-dicarboxamide], which CC50 (in vitro [1]) is on record?
A: > 116 µM

Q: And the “Dengue SI” value (DENV (serotype 2))?
A: >55

Q: And the EC50 (DENV (serotype 2); Dengue virus, Vero B)?
A: 2.1 µM

Q: And the CC50 (in vitro [2]; chlorocebus aethiops)?
A: > 116 µM

Q: And the “Yellow fever SI” value (YFV)?
A: >11

Q: What about the EC50 (YFV) of the same compound?
A: 10.6 µM

Q: Which “Dengue SI” value (DENV (serotype 2)) does the source give for Cc1ccc(NC(=O)c2ccccc2C(=O)Nc2ccc(C)cc2-c2cc(C)n[nH]2)cc1 [7c, N^1-(4-methyl-2-(3-methyl-1H-pyrazol-5-yl)phenyl)-N^2-(p-tolyl)phthalamide] here?
A: >4

Q: What about the “fold loss in DENV inhibitory activity” value (DENV (serotype 2)) of the same compound?
A: 60 fold

Q: What about the EC50 (DENV (serotype 2); Dengue virus, Vero B) of the same compound?
A: 29 µM

Q: What about the CC50 (in vitro [2]; chlorocebus aethiops) of the same compound?
A: > 117 µM

Q: For O=C(NCc1ccccc1-c1ccsc1)c1nccnc1C(=O)Nc1ccc(F)cc1 [6i, N^2-(4-fluorophenyl)-N^3-(2-(thiophen-3-yl)benzyl)pyrazine-2,3-dicarboxamide], which CC50 at 168 h (in vitro [1]) is on record?
A: 76 µM

Q: What about the “Dengue SI” value (DENV (serotype 2)) of the same compound?
A: 2

Q: And the EC50 (DENV (serotype 2); Dengue virus, Vero B)?
A: 24 µM

Q: What about the CC50 at 168 h (in vitro [2]; chlorocebus aethiops) of the same compound?
A: 52 µM

Q: What about the “Yellow fever SI” value (YFV) of the same compound?
A: 19

Q: And the EC50 (YFV)?
A: 3.9 µM

Q: Which results are given for Cc1ccc(NC(=O)c2ccccc2C(=O)Nc2ccc(F)cc2)c(-c2cc(C)n[nH]2)c1 [7a, N^1-(4-fluorophenyl)-N^2-(4-methyl-2-(3-methyl-1H-pyrazol-5-yl)phenyl)phthal-amide]?
A: Dengue SI (DENV (serotype 2)): >235; fold more inhibitory against dengue virus (DENV (serotype 2)): 5 fold; EC50 (DENV (serotype 2); Dengue virus, Vero B): 0.5 µM; CC50 (in vitro [2]; chlorocebus aethiops): > 117 µM

Q: Which CC50 (in vitro [1]) does the source give for Cc1ccc(NC(=O)c2ccccc2C(=O)Nc2ccc(F)cc2)c(-c2ccc(C)s2)c1 [7f, N^1-(4-fluorophenyl)-N^2-(4-methyl-2-(5-methylthiophen-2-yl)phenyl)phthalamide] here?
A: > 113 µM

Q: And the “Dengue SI” value (DENV (serotype 2))?
A: >39

Q: What about the EC50 (DENV (serotype 2); Dengue virus, Vero B) of the same compound?
A: 2.9 µM

Q: What about the CC50 (in vitro [2]; chlorocebus aethiops) of the same compound?
A: > 113 µM

Q: And the “Yellow fever SI” value (YFV)?
A: >17

Q: And the EC50 (YFV)?
A: 6.8 µM

Q: Which CC50 (in vitro [1]) does the source give for Cc1ccc(NC(=O)c2nccnc2C(=O)Nc2ccc(F)cc2)c(-c2cccs2)c1 [6c, N^2-(4-fluorophenyl)-N^3-(4-methyl-2-(thiophen-2-yl)phenyl)pyrazine-2,3-dicarboxamide] here?
A: > 116 µM

Q: What about the “Dengue SI” value (DENV (serotype 2)) of the same compound?
A: >25

Q: And the EC50 (DENV (serotype 2); Dengue virus, Vero B)?
A: 4.6 µM

Q: What about the CC50 (in vitro [2]; chlorocebus aethiops) of the same compound?
A: > 116 µM

Q: And the EC50 (YFV)?
A: 23 µM

Q: Which “Dengue EC50” value (DENV (serotype 2)) does the source give for Cc1ccc(NC(=O)c2nccnc2C(=O)Nc2ccc(C)cc2-c2ccc(C)s2)cc1 [6f, N^2-(4-methyl-2-(5-methylthiophen-2-yl)phenyl)-N^3-(p-tolyl)pyrazine-2,3-dicarboxamide] here?
A: complete loss of DENV inhibitory activity

Q: And the “Dengue SI” value (DENV (serotype 2))?
A: 1

Q: And the EC50 (DENV (serotype 2); Dengue virus, Vero B)?
A: > 113 µM

Q: What about the CC50 (in vitro [2]; chlorocebus aethiops) of the same compound?
A: > 113 µM

Q: With Cc1ccc(NC(=O)c2nccnc2C(=O)NCc2ccc(-c3ccsc3)cc2)cc1 [6l, N^2-(4-(thiophen-3-yl)benzyl)-N^3-(p-tolyl)pyrazine-2,3-dicarboxamide] as the compound, how does the CC50 (in vitro [1]) read?
A: > 117 µM

Q: What about the “Dengue SI” value (DENV (serotype 2)) of the same compound?
A: >8

Q: And the “fold increase in DENV activity for the methyl congener” value (DENV (serotype 2))?
A: 10 fold

Q: And the EC50 (DENV (serotype 2); Dengue virus, Vero B)?
A: 14 µM

Q: And the CC50 (in vitro [2]; chlorocebus aethiops)?
A: > 117 µM

Q: And the “Yellow fever SI” value (YFV)?
A: >5

Q: What about the EC50 (YFV) of the same compound?
A: 21.5 µM

Q: With Cc1ccc(NC(=O)c2ccccc2C(=O)Nc2ccccc2-c2cc(C)n[nH]2)cc1 [7n, N^1-(2-(3-methyl-1H-pyrazol-5-yl)phenyl)-N^2-(p-tolyl)phthalamide] as the compound, how does the CC50 (in vitro [1]) read?
A: > 122 µM

Q: And the “Dengue SI” value (DENV (serotype 2))?
A: >9

Q: What about the EC50 (DENV (serotype 2); Dengue virus, Vero B) of the same compound?
A: 14.1 µM

Q: What about the CC50 (in vitro [2]; chlorocebus aethiops) of the same compound?
A: > 122 µM

Q: What about the “Yellow fever SI” value (YFV) of the same compound?
A: >21

Q: And the EC50 (YFV)?
A: 5.8 µM

Q: For Cc1ccc(NC(=O)c2ccccc2C(=O)Nc2ccc(C)cc2-c2cccs2)cc1 [7d, N^1-(4-methyl-2-(thiophen-2-yl)phenyl)-N^2-(p-tolyl)phthalamide], which CC50 (in vitro [1]) is on record?
A: > 37 µM

Q: What about the “Dengue SI” value (DENV (serotype 2)) of the same compound?
A: >8

Q: And the EC50 (DENV (serotype 2); Dengue virus, Vero B)?
A: 14 µM

Q: And the CC50 (in vitro [2]; chlorocebus aethiops)?
A: > 117 µM

Q: And the “Yellow fever SI” value (YFV)?
A: >1.6

Q: And the EC50 (YFV)?
A: 23.2 µM

Q: With Cc1ccc(NC(=O)c2nccnc2C(=O)Nc2ccc(C)cc2-c2ccsc2)cc1 [6h, N^2-(4-methyl-2-(thiophen-3-yl)phenyl)-N^3-(p-tolyl)pyrazine-2,3-dicarboxamide] as the compound, how does the CC50 (in vitro [1]) read?
A: > 116 µM

Q: What about the “Dengue SI” value (DENV (serotype 2)) of the same compound?
A: >29

Q: And the EC50 (DENV (serotype 2); Dengue virus, Vero B)?
A: 0.5 to 3.4 µM

Q: What about the EC50 (DENV (serotype 2)) of the same compound?
A: < 0.9 µM

Q: What about the CC50 at 168 h (in vitro [2]; chlorocebus aethiops) of the same compound?
A: 26 µM

Q: And the “Yellow fever SI” value (YFV)?
A: 1

Q: What about the EC50 (YFV) of the same compound?
A: > 116 µM

Q: With Cc1ccc(NC(=O)c2ccccc2C(=O)NCc2ccccc2-c2ccsc2)cc1 [7j, N^1-(2-(thiophen-3-yl)benzyl)-N^2-(p-tolyl)phthalamide] as the compound, how does the CC50 at 168 h (in vitro [1]) read?
A: 61 µM

Q: And the “Dengue SI” value (DENV (serotype 2))?
A: 17

Q: And the EC50 (DENV (serotype 2); Dengue virus, Vero B)?
A: 3 µM

Q: What about the CC50 at 168 h (in vitro [2]; chlorocebus aethiops) of the same compound?
A: 50 µM

Q: What about the “Yellow fever SI” value (YFV) of the same compound?
A: 23

Q: What about the EC50 (YFV) of the same compound?
A: 2.6 µM

Q: For Cc1ccc(NC(=O)c2ccccc2C(=O)Nc2ccc(F)cc2)c(-c2cccs2)c1 [7b, N^1-(4-fluorophenyl)-N^2-(4-methyl-2-(thiophen-2-yl)phenyl)phthalamide], which CC50 (in vitro [1]) is on record?
A: > 37 µM

Q: And the “Dengue SI” value (DENV (serotype 2))?
A: >29

Q: What about the EC50 (DENV (serotype 2); Dengue virus, Vero B) of the same compound?
A: 4 µM

Q: What about the CC50 (in vitro [2]; chlorocebus aethiops) of the same compound?
A: > 117 µM

Q: What about the “Yellow fever SI” value (YFV) of the same compound?
A: >1.6

Q: What about the EC50 (YFV) of the same compound?
A: 23.2 µM

Q: With Cc1ccc(NC(=O)c2nc[nH]c2C(=O)Nc2ccc(F)cc2)c(-c2cc(C)n[nH]2)c1 [compound 1] as the compound, how does the EC50 (DENV (serotype 2); Dengue virus, Vero B) read?
A: 2.5 µM

Q: And the EC50 (YFV)?
A: 3.5 µM

Q: For Cc1ccc(NC(=O)c2nccnc2C(=O)Nc2ccc(C)cc2-c2cc(C)n[nH]2)cc1 [6b, N^2-(4-methyl-2-(3-methyl-1H-pyrazol-5-yl)phenyl)-N^3-(p-tolyl)pyrazine-2,3-dicarboxamide], which “Dengue SI” value (DENV (serotype 2)) is on record?
A: >235

Q: And the “fold increase of DENV inhibitory properties” value (DENV (serotype 2))?
A: 50 fold

Q: What about the EC50 (DENV (serotype 2); Dengue virus, Vero B) of the same compound?
A: 0.5 µM

Q: What about the CC50 (in vitro [2]; chlorocebus aethiops) of the same compound?
A: > 117 µM

Q: What about the CC50 (in vitro [2]; green monkey) of the same compound?
A: > 116 µM

Q: With Cc1ccc(NC(=O)c2nccnc2C(=O)Nc2ccc(F)cc2)c(-c2ccc(C)s2)c1 [6e, N^2-(4-fluorophenyl)-N^3-(4-methyl-2-(5-methylthiophen-2-yl)phenyl)pyrazine-2,3-dicarboxamide] as the compound, how does the “Dengue EC50” value (DENV (serotype 2)) read?
A: complete loss of DENV inhibitory activity

Q: And the “Dengue SI” value (DENV (serotype 2))?
A: 1

Q: And the EC50 (DENV (serotype 2); Dengue virus, Vero B)?
A: > 112 µM

Q: And the CC50 (in vitro [2]; chlorocebus aethiops)?
A: > 112 µM

Q: With Cc1ccc(NC(=O)c2nccnc2C(=O)Nc2ccc(F)cc2)c(-c2cc(C)n[nH]2)c1 [6a, N^2-(4-fluorophenyl)-N^3-(4-methyl-2-(3-methyl-1H-pyrazol-5-yl)phenyl) pyrazine-2,3 dicarboxamide] as the compound, how does the “Dengue SI” value (DENV (serotype 2)) read?
A: >4

Q: What about the “fold reduction in inhibitory properties against dengue virus” value (DENV (serotype 2)) of the same compound?
A: 10 fold

Q: And the EC50 (DENV (serotype 2); Dengue virus, Vero B)?
A: 26.5 µM

Q: And the CC50 (in vitro [2]; chlorocebus aethiops)?
A: > 116 µM

Q: With Cc1ccc(NC(=O)c2nccnc2C(=O)Nc2ccc(C)cc2-c2cccs2)cc1 [6d, N^2-(4-methyl-2-(thiophen-2-yl)phenyl)-N^3-(p-tolyl)pyrazine-2,3-dicarboxamide] as the compound, how does the “Dengue SI” value (DENV (serotype 2)) read?
A: >235

Q: And the “fold increase in DENV activity for the methyl congener” value (DENV (serotype 2))?
A: 10 fold

Q: And the EC50 (DENV (serotype 2); Dengue virus, Vero B)?
A: 0.5 µM

Q: What about the CC50 (in vitro [2]; chlorocebus aethiops) of the same compound?
A: > 117 µM

Q: And the CC50 (in vitro [2]; green monkey)?
A: > 116 µM
